Measurements taken from ChEMBL document CHEMBL2074243, “Mitochondria-targeting drug oligomycin blocked P-glycoprotein activity and triggered apoptosis in doxorubicin-resistant HepG2 cells” (Chemotherapy, 2004).

Molecular target: ATP-dependent translocase ABCB1 (Homo sapiens, UniProt P08183)
Experiment: TP_TRANSPORTER: drug resistance in R-HepG2 cells
Format: functional, cell-based

Chain of ATP-dependent translocase ABCB1 (P08183 whole entry): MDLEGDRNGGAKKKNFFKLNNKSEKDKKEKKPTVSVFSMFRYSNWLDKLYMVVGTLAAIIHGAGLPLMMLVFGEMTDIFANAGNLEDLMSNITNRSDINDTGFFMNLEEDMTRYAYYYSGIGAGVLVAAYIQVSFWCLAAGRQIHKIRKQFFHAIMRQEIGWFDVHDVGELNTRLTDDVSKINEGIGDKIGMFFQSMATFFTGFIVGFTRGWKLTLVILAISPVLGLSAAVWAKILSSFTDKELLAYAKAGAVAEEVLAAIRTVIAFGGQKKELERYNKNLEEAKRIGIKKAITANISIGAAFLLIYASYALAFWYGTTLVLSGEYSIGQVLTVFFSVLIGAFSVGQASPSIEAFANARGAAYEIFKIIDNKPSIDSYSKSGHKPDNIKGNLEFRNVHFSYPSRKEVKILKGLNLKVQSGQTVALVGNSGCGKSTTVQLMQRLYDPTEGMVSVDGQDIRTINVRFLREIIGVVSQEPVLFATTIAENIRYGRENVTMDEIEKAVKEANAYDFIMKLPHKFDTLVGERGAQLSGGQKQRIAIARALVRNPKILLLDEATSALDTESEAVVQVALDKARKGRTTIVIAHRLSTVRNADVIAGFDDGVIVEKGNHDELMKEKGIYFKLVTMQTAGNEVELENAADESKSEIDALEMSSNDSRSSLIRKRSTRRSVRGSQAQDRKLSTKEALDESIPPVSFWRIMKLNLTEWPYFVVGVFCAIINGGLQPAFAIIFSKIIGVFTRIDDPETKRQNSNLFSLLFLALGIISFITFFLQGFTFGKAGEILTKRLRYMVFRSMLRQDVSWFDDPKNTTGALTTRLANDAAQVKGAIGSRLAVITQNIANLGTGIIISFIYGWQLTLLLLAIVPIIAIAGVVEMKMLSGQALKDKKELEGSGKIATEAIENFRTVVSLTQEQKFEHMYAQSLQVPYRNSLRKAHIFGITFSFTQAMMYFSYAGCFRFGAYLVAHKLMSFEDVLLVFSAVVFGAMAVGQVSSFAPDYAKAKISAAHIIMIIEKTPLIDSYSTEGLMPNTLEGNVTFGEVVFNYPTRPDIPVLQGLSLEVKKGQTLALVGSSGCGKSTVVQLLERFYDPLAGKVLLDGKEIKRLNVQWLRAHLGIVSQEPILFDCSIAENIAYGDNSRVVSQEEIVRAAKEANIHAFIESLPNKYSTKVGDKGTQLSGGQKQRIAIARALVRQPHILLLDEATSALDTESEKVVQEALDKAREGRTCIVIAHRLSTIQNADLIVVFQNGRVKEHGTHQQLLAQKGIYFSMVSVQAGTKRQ

Activity	Compound
substrate [+]	COc1cccc2c1C(=O)c1c(O)c3c(c(O)c1C2=O)C[C@@](O)(C(=O)CO)C[C@@H]3O[C@H]1C[C@H](N)[C@H](O)[C@H](C)O1 [DOXORUBICIN]
substrate [+]	CC(=O)O[C@H]1C(=O)[C@@]2(C)[C@H]([C@H](OC(=O)c3ccccc3)[C@]3(O)C[C@H](OC(=O)[C@H](O)[C@@H](NC(=O)c4ccccc4)c4ccccc4)C(C)=C1C3(C)C)[C@]1(OC(C)=O)CO[C@@H]1C[C@@H]2O [PACLITAXEL]
substrate [+]	CISPLATIN
